Target: T1, sGC α1/β1 heterodimer stably expressed in CHO-K1 cells (CHO-K1/sGC) (Homo sapiens, UniProt Q02108+Q02153)
T1 construct: expressed in transfected cells
T1 sequence (Q02108 1-690): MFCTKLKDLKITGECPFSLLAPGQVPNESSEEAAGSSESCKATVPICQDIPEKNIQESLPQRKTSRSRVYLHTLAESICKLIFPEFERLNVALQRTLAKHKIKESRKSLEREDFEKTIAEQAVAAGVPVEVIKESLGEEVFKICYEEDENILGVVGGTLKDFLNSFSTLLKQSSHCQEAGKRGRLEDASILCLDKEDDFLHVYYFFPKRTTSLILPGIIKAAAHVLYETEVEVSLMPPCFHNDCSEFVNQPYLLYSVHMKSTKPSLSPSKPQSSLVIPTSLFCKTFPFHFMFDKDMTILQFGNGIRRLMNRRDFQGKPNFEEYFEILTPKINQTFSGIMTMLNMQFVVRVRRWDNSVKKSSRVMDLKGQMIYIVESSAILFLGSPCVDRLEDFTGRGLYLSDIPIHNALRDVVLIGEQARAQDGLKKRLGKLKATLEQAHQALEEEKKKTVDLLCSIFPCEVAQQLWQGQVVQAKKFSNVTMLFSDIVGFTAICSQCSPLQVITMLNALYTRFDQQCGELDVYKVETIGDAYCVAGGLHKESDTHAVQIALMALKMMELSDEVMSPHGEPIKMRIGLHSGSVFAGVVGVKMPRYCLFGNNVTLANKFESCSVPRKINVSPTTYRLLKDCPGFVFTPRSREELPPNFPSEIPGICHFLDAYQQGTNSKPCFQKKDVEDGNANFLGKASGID
T1 sequence (Q02153 1-619): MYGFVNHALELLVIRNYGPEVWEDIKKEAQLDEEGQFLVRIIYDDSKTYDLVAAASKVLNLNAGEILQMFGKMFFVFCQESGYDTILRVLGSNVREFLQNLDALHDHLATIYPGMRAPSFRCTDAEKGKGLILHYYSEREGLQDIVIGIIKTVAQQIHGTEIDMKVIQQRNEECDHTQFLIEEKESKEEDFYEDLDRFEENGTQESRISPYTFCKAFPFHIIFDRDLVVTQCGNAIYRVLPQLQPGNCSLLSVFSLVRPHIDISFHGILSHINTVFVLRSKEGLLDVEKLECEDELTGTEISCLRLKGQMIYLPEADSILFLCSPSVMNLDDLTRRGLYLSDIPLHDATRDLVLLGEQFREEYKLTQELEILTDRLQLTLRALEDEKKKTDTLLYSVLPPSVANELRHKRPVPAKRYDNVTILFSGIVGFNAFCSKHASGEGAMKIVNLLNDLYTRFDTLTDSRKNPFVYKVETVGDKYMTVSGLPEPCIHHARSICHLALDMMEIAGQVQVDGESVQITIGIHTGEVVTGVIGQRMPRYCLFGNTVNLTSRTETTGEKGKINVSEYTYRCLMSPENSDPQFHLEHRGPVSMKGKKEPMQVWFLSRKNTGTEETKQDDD
Experiment: Cell-based sGC functional assay (CASA assay), cGMP generation by HTRF
Conditions: for Emax: CHO-K1, maximum cGMP production of Compound A set to 100% activation, read-out: % Act. (percent activation relative to Compound A); for EC50: CHO-K1/sGC cells, 1 hr at 37° C., 4P fit, presence or absence of DETA-NO not given, read-out: IP (nM) (inflection point)
Text: Biological Assay 1: Cell-Based sGC Functional Assay (CASA Assay) Rationale
sGC is a heme-containing enzyme that converts GTP to secondary messenger cGMP. Increases in cGMP levels affect several physiological processes including vasorelaxation through multiple downstream pathways. […] Heme-dependent activators (HDAs) preferentially activate sGC containing a ferrous heme group. To determine the effect of sGC activators on enzyme activity, the CASA assay was developed to monitor the generation of cGMP in a cell line that stably expresses the heterodimeric sGC protein.
A CHO-K1 cell line stably expressing the sGC α1/β1 heterodimer was generated using a standard transfection protocol. CHO-K1 cells were transfected with plasmids pIREShyghsGCα1 and pIRESneo-hsGCβ1 simultaneously using FUGENE reagent. Clones that stably express both subunits were selected with hygromycin and neomycin for ˜2 weeks. Clone #7 was chosen for the assay and was designated CHO-K1/sGC. CHO-K1/sGC cells were maintained in F-K12 medium containing 10% heat-inactivated Fetal Bovine Serum (FBS), 100 μg/mL penicillin/streptomycin, 0.5 mg/mL hygromycin and 0.25 mg/mL G418. The cells were then cryopreserved in LN2. On the day of the assay, cells were thawed and resuspended in EBSS Assay Buffer (Sigma, E3024) supplemented with 5 mM MgCl2, 10 mM HEPES (4-(2-hydroxyethyl)piperazine-1-ethanesulfonic acid) and 0.05% BSA (bovine serum albumin) (EAB) and cell density was then adjusted to 4×10^5/mL with EAB. IBMX (3-isobutyl-1-methylxanthin, 0.5 mM) was added to inhibit degradation of cGMP. Compounds were diluted from DMSO stock solutions and added to the assay at a final DMSO concentration of 2.5%. Cells were incubated with compounds in the presence and absence of 1 μM of Diethylenetriamine/nitric oxide adduct (DETA-NO; Sigma, 17018) for 1 hr at 37° C. At the end of the incubation period, the reaction was terminated and the cells were lysed with the detection reagents from Cisbio Kits. The level of intracellular cGMP was determined using an HTRF-based assay kit (CisBio, 62GM2PEC), which detects the displacement of a fluorescence labeled cGMP from its specific antibody. The cGMP produced by test compounds was directly compared to the maximum cGMP production (this value was set to equal 100% activation.) of the published sGC-HDA Compound A:
[drawing 101] (Example 1 in WO 2010/065275, published Jun. 10, 2010). The test compounds' activities were then expressed as a percentage of Compound A, the standard in every experiment. This percent activation was calculated either in the presence or absence of DETA-NO which was then plotted. IP and maximum fold induction was derived using ADA analysis software for 4P fit.
The compounds in the Examples of the instant invention had inflection points (IP) less than or equal to 10 μM and many had IPs less than or equal to about 1 μM.

SMILES	Emax	EC50	% Act. (percent activation relative to Compound A) (maximum cGMP production of Compound A set to 100% activation)
CC1(c2ccc(F)cc2)C(=O)Nc2nc(-c3cn4ccnc4c(Oc4c(F)ccc(F)c4F)n3)nc(N)c21 (stereo not drawn) [Example 6A, 4-amino-5-(4-fluorophenyl)-5-methyl-2-[8-(2,3,6-trifluorophenoxy)imidazo[1,2-a]pyrazin-6-yl]-5,7-dihydro-6H-pyrrolo[2,3-d] pyrimidin-6-one]	89%	499 nM	
CC1(c2ccc(Cl)cc2)C(=O)Nc2nc(-c3cn4ccnc4c(Oc4cc(F)ccc4F)n3)nc(N)c21 (stereo not drawn) [Example 27A, 4-amino-5-(4-chlorophenyl)-2-[8-(2,5-difluoro-phenoxy)imidazo [1,2-a]pyrazin-6-yl]-5-methyl-5,7-dihydro-6H-pyrrolo[2,3-d] pyrimidin-6-one]	128%	47 nM	
CC1(c2ccc(F)cc2)C(=O)Nc2nc(-c3cn4ccnc4c(Oc4cc(F)ccc4F)n3)nc(N)c21 (stereo not drawn) [Example 25A, 4-amino-2-[8-(2,5-difluorophenoxy)imidazo[1,2-a]pyrazin-6-yl]-5-(4-fluorophenyl)-5-methyl-5,7-dihydro-6H-pyrrolo[2,3-d] pyrimidin-6-one]	97%	32 nM	
CC1(C)C(=O)Nc2nc(-c3cn4ccnc4c(Oc4cc(F)cc(F)c4)n3)nc(N)c21 [Example 24, 4-amino-2-[8-(3,5-difluorophenoxy)imidazo[1,2-a]pyrazin-6-yl]-5,5-dimethyl-5,7-dihydro-6H-pyrrolo[2,3-d] pyrimidin-6-one]	89%	238 nM	
CC1(c2ccc(Cl)cc2)C(=O)Nc2nc(-c3cn4ccnc4c(OC4CCC(F)(F)CC4)n3)nc(N)c21 (stereo not drawn) [Example 28A, 4-amino-5-(4-chlorophenyl)-2-{8-[(4,4-difluorocyclohexyl)oxy]imidazo[1,2-a]pyrazin-6-yl}-5-methyl-5,7-dihydro-6H-pyrrolo[2,3-d] pyrimidin-6-one]	139%	1160 nM	
CC1(c2ccccc2)C(=O)Nc2nc(-c3cn4ccnc4c(Oc4cccc(F)c4F)n3)nc(N)c21 (stereo not drawn) [Example 13B, 4-amino-2-[8-(2,3-difluoro-phenoxy)imidazo [1,2-a]pyrazin-6-yl]-5-methyl-5-phenyl-5,7-dihydro-6H-pyrrolo[2,3-d] pyrimidin-6-one]	109%	14 nM	
CC1(c2ccc(F)cc2)C(=O)Nc2nc(-c3cn4ccnc4c(Oc4ccc(F)cc4F)n3)nc(N)c21 (stereo not drawn) [Example 19A, 4-amino-2-[8-(2,4-difluorophenoxy)imidazo[1,2-a]pyrazin-6-yl]-5-(4-fluorophenyl)-5-methyl-5,7-dihydro-6H-pyrrolo[2,3-d] pyrimidin-6-one]	109%	74 nM	
CCCC(C)Oc1nc(-c2nc(N)c3c(n2)NC(=O)C3(C)c2ccc(F)cc2)cn2ccnc12 (racemic) [Example 65A, 4-amino-5-(4-fluorophenyl)-5-methyl-2-[8-(1-methyl-butoxy)imidazo [1,2-a]pyrazin-6-yl]-5,7-dihydro-6H-pyrrolo[2,3-d] pyrimidin-6-one]	101%	461 nM	

Other lines, results leading:

Emax	EC50	% Act. (percent activation relative to Compound A) (maximum cGMP production of Compound A set to 100% activation)	SMILES
72%	7 nM		CC1(c2ccc(Cl)cc2)C(=O)Nc2nc(-c3cn4ccnc4c(NCc4ccccc4)n3)nc(N)c21 (stereo not drawn) [Example 60A, 4-amino-2-[8-(benzylamino)imidazo[1,2-a]pyrazin-6-yl]-5-(4-chloro-phenyl)-5-methyl-5,7-dihydro-6H-pyrrolo[2,3-d] pyrimidin-6-one]
89%	291 nM		CC(CNc1nc(-c2nc(N)c3c(n2)NC(=O)C3(C)c2ccc(F)cc2)cn2ccnc12)C(F)(F)F (racemic) [Example 70, 4-amino-5-(4-fluorophenyl)-5-methyl-2-{8-[(3,3,3-trifluoro-2-methylpropyl)amino]imidazo [1,2-a]pyrazin-6-yl}-5,7-dihydro-6H-pyrrolo[2,3-d] pyrimidin-6-one]
	143 nM	95%	CC1(c2ccc(Cl)cc2)C(=O)Nc2nc(-c3cn4ccnc4c(NCC4CCCCO4)n3)nc(N)c21 (single isomer, unassigned; slow eluting) [Example 71B, 4-amino-5-(4-chlorophenyl)-5-methyl-2-{8-[(tetrahydro-2H-pyran-2-ylmethyl)amino]imidazo [1,2-a]pyrazin-6-yl}-5,7-dihydro-6H-pyrrolo[2,3-d] pyrimidin-6-one (slow eluting)]
86%	324 nM		CC1(c2ccc(Cl)cc2)C(=O)Nc2nc(-c3cn4ccnc4c(OCC4CCCCO4)n3)nc(N)c21 (single isomer, unassigned; fast eluting) [Example 68A, 4-amino-5-(4-chlorophenyl)-5-methyl-2-[8-(tetrahydro-2H-pyran-2-ylmethoxy)imidazo[1,2-a]pyrazin-6-yl]-5,7-dihydro-6H-pyrrolo [2,3-d] pyrimidin-6-one (fast eluting)]
167%	701 nM		CC1(c2ccc(Cl)cc2)C(=O)Nc2nc(-c3cn4ccnc4c(NCC4CCOCC4)n3)nc(N)c21 (stereo not drawn) [Example 59A, 4-amino-5-(4-chlorophenyl)-5-methyl-2-{8-[(tetrahydro-2H-pyran-4-ylmethyl)amino]imidazo [1,2-a]pyrazin-6-yl}-5,7-dihydro-6H-pyrrolo[2,3-d] pyrimidin-6-one]
83%	719 nM		CC1(c2ccc(F)cc2)C(=O)Nc2nc(-c3cn4cc(C(F)(F)F)nc4c(Oc4cccc(F)c4F)n3)nc(N)c21 (stereo not drawn) [Example 37A, 4-amino-2-(8-(2,3-difluoro-phenoxy)-2-(trifluoromethyl)imidazo[1,2-a]pyrazin-6-yl)-5-(4-fluorophenyl)-5-methyl-5H-pyrrolo[2,3-d] pyrimidin-6(7H)-one]
67%	73 nM		CC1(c2ccc(F)cc2)C(=O)Nc2nc(-c3cn4ccnc4c(SCCC(F)(F)F)n3)nc(N)c21 (stereo not drawn) [Example 64A, 4-amino-5-(4-fluorophenyl)-5-methyl-2-{8-[(3,3,3-trifluoro-propyl)sulfanyl]imidazo[1,2-a]pyrazin-6-yl}-5,7-dihydro-6H-pyrrolo[2,3-d] pyrimidin-6-one]
